Laboratory results reported in article PMC9456187, “The Ambivalence of Connexin43 Gap Peptides in Cardioprotection of the Isolated Heart against Ischemic Injury” (International Journal of Molecular Sciences, 2022).

Test system: isolated perfused male rat hearts (connexin43 hemichannels)
Experiment: Infarct size (TTC staining) after global ischemia-reperfusion, Langendorff-perfused heart
Design: species or system male Wistar rat
Description: All experiments were approved by the Norwegian animal research authority and were performed according to the Norwegian Animal Welfare Act and the European Convention for the Protection of Vertebrate Animals Used for Experimental and other Scientific Purposes (ETS No. 123 and 2010/63/EU). Male Wistar rats 250–350 g (Charles River, UK) were anesthetized with pentobarbital (100 mg/kg i.p.) and heparinized (300 IU i.p.), the chest opened and the heart removed.
The heart was immediately submerged in an ice-cold buffer and quickly mounted on the perfusion apparatus, where it was perfused with the Krebs–Henseleit buffer (gassed with 5% CO2 and 95%O2) in a constant pressure Langendorff setup (100 cm H2O). The temperature was kept at 37 °C during the whole experiment by keeping the heart submerged in a heated buffer. Left ventricular pressure was recorded using a balloon catheter connected to a pressure transducer. Coronary flow was measured by timed collections of perfusate.
Hearts were stabilized for 15 min, then either subjected to 30 min of global ischemia and 2 h of reperfusion or preconditioning with 3 cycles of 5 min of ischemia and reperfusion (IPC) before 30 min of global ischemia and 2 h of reperfusion. Care was taken to secure controls corresponding in time and rat batch with the intervention experiments.
Connexin mimetic peptides Gap19 (amino acid sequence KQIEKKFK), Gap26 (VCYDKSFPISHVR) and Gap27 (SRPTEKTIFII) from Pepnome Inc., Hong Kong, China, were dissolved in the Krebs–Henseleit buffer to a final concentration of 0.5 µM [7, 12] and used in experiments the same day. Amino-acid sequences were confirmed by mass spectrometry analysis. The hearts that were subject to ischemia without IPC received the peptides prior to and after 30 min global ischemia. The hearts that were subject to IPC received the peptides during the preconditioning cycles only prior to 30 min ischemia.
At the end of reperfusion, the heart was immediately cut off caudal to the atria yielding only ventricular tissue. The ventricular tissue was then weighed in its wet state and immediately frozen to −18 °C for 24 h, sliced into four or five 2 mm thick slices and dyed with 1% 2, 3, 5 triphenyl tetrazolium chloride (TTC) (Sigma-Aldrich Co., Ltd., St. Louis, MI, USA) in Dulbecco’s phosphate buffered saline (PBS) (Sigma-Aldrich Co.). Each heart was submerged in 50mL of 1% TTC in PBS for 20 min at 37 °C in a light-free environment. Thereafter the slices were quickly dried and fixed in 4% formaldehyde for 30 min before they were scanned by a high-resolution scanner; the images were then blind-coded. Infarcts were manually traced, and the area of infarct relative to the whole area was quantified using Image J software. […]

KQIEKKFK [Gap19]
Cardioprotection / infarct size reduction when combined with IPC (in words) (Gap peptide prior to and during three IPC cycles, not at reperfusion): protection was maintained
Infarct size in % of untreated control infarcts, Gap peptide combined with IPC (IPC 3 cycles of 5 min ischemia/reperfusion, Gap peptide 0.5 µM (Figure 1 legend: 0.05 µM) only during preconditioning cycles before 30 min global ischemia, 2 h reperfusion, TTC, mean ± SEM): 60.9 ± 5.1%
Infarct size reduction (in words) (no IPC, Gap peptide immediately prior to ischemia and first 10 min of reperfusion): reducing infarct size to the same degree as ischemic preconditioning
Infarct size in % of untreated control infarcts (no IPC, isolated rat heart, 37 °C, Gap peptide 0.5 µM (Figure 1 legend: 0.05 µM) prior to and after 30 min global ischemia, 2 h reperfusion, TTC, mean ± SEM): 76.2 ± 2.7%
